Laboratory results from patent publication US11919902B2, “Aryl-bipyridine amine derivatives as phosphatidylinositol phosphate kinase inhibitors” (HiberCell, Inc., priority 2017, dated 2024).

Experiments:
[1] = target: T1, GST tagged PIP4KtypeIIB (Homo sapiens, UniProt P78356); assay: Trans-FI P kinase assay PIP4K2B (PIP4KtypeIIB inhibition assay); type: biochemical; details: Table 4; compounds listed under IC50 range headings; 100 uM GTP, 5 nM PIP4KIIB; read-out: Trans-FI P kinase assays: PIP4K2B IC50
T1 construct: made in house; host or cells: E. coli
T1 sequence (P78356 1-416): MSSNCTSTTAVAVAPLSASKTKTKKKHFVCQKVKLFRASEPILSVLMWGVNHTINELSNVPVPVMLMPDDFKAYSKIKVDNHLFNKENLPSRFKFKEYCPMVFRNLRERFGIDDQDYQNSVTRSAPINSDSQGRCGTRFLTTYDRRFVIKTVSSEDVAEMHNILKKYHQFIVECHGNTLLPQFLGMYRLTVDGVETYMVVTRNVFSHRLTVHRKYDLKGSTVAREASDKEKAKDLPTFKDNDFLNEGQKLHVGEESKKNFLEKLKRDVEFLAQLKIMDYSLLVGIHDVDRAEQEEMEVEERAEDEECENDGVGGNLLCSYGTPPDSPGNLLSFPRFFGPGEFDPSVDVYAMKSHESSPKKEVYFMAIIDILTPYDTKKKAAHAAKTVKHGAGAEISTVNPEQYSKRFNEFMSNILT
Summary of the method: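 Purified GST-PIP4KIIB (5 nM final), 1 h preincubation with compound at 27 C, then 2 h reaction with 100 uM GTP and 80 uM PI5P plus DOPE carrier lipid in pH 7.3 HEPES/MgCl2/Triton buffer with 5% DMSO. GDP read by Transcreener FI fluorescence against a calibration curve; IC50 from % no-inhibitor activity vs log concentration.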

[2] = target: T2, GST tagged PIP4KtypeIIA (Homo sapiens, UniProt P48426); assay: ADP-glo kinase assay PIP4K 2A (PIP4KtypeIIA inhibition assay); type: biochemical; details: Table 3; compounds listed under IC50 range headings; 10 uM ATP, 0.5 nM PIP4KIIA
T2 construct: made in house; host or cells: E. coli
T2 sequence (P48426 1-406): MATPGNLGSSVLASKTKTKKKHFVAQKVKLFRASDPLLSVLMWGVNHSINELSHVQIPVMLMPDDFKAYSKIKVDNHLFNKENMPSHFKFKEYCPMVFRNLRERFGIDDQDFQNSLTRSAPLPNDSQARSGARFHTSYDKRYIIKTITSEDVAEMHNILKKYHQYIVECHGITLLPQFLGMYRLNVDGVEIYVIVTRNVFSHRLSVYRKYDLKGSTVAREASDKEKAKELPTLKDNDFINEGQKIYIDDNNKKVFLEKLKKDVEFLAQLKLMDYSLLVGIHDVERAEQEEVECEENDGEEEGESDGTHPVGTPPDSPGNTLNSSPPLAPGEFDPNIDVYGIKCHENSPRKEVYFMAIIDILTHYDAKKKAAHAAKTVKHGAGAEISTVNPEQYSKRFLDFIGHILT
Summary of the method: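 E. coli-expressed GST-PIP4KtypeIIA (0.5 nM final) was preincubated 1 h at 27 °C with compound (up to 4.8 μM, 5% DMSO) in PI5P/DOPE lipid in 50 mM HEPES pH 7.3 with 10 mM MgCl2. The reaction was started with 10 μM ATP (final) and run 1 h. ADP was read by ADP-Glo luminescence via a calibration curve, and IC50 was taken from % residual activity.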

Row | Compound | IC50 [1] [nM] | IC50 [2] [nM]
1 | CN(C)C(=O)c1cnc2ccn(-c3cncc(-c4ccc(N5CCCC5=O)cc4)c3)c2c1 [Example 254, N,N-dimethyl-1-(5-(4-(2-oxopyrrolidin-1-yl)phenyl)pyridin-3-yl)-1H-pyrrolo[3,2-b]pyridine-6-carboxamide] | 100 to 1000 | 100 to 1000
2 | O=C(NCCc1cnccn1)c1cc2c(-c3cncc(-c4ccc(N5CCCC5=O)cc4)c3)ccnc2[nH]1 [Example 255, 4-(5-(4-(2-oxopyrrolidin-1-yl)phenyl)pyridin-3-yl)-N-(2-(pyrazin-2-yl)ethyl)-1H-pyrrolo[2,3-b]pyridine-2-carboxamide] | 10 to 100 | 100 to 1000
3 | O=C(NCCc1nccs1)c1cc2c(-c3cncc(-c4ccc(N5CCCC5=O)cc4)c3)ccnc2[nH]1 [Example 256, 4-(5-(4-(2-oxopyrrolidin-1-yl)phenyl)pyridin-3-yl)-N-(2-(thiazol-2-yl)ethyl)-1H-pyrrolo[2,3-b]pyridine-2-carboxamide] | 10 to 100 | 100 to 1000
4 | CN(C)C(=O)c1cc2c(-c3cncc(-c4ccc(N5CCCC5=O)cc4)c3)cn(C)c2c(=O)n1C [Example 260, N,N,1,6-tetramethyl-7-oxo-3-(5-(4-(2-oxopyrrolidin-1-yl)phenyl)pyridin-3-yl)-6,7-dihydro-1H-pyrrolo[2,3-c]pyridine-5-carboxamide] | 100 to 1000 | 100 to 1000
5 | O=C(NCCc1ccc[nH]1)c1cc2c(-c3cncc(-c4ccc(N5CCCC5=O)cc4)c3)ccnc2[nH]1 [Example 261, N-(2-(1H-pyrrol-2-yl)ethyl)-4-(5-(4-(2-oxopyrrolidin-1-yl)phenyl)pyridin-3-yl)-1H-pyrrolo[2,3-b]pyridine-2-carboxamide] | 10 to 100 | 100 to 1000
6 | CN(C)C(=O)c1cnc2c(c1)c(-c1cncc(-c3ccc(N4CCCC4=O)cc3)c1)c(C1CC1)n2C [Example 262, 2-cyclopropyl-N,N,1-trimethyl-3-(5-(4-(2-oxopyrrolidin-1-yl)phenyl)pyridin-3-yl)-1H-pyrrolo[2,3-b]pyridine-5-carboxamide] | 100 to 1000 | 2500 to 5000
7 | Cn1c(C(N)=O)cc2c(-c3cncc(-c4ccc(N5CCCC5=O)cc4)c3)cn(C)c2c1=O [Example 263, 1,6-dimethyl-7-oxo-3-(5-(4-(2-oxopyrrolidin-1-yl)phenyl)pyridin-3-yl)-6,7-dihydro-1H-pyrrolo[2,3-c]pyridine-5-carboxamide] | 1000 to 2500 | 1000 to 2500
8 | O=C(NC1CC1c1ccccc1)c1cc2c(-c3cncc(-c4ccc(N5CCCC5=O)cc4)c3)ccnc2[nH]1 (centres unmarked) [Example 264, 4-(5-(4-(2-oxopyrrolidin-1-yl)phenyl)pyridin-3-yl)-N-(2-phenylcyclopropyl)-1H-pyrrolo[2,3-b]pyridine-2-carboxamide] | 10 to 100 | 100 to 1000
9 | CC(C)c1c(-c2cncc(-c3ccc(N4CCCC4=O)cc3)c2)c2cc(C(=O)N(C)C)cnc2n1C [Example 266, 2-isopropyl-N,N,1-trimethyl-3-(5-(4-(2-oxopyrrolidin-1-yl)phenyl)pyridin-3-yl)-1H-pyrrolo[2,3-b]pyridine-5-carboxamide] | 1000 to 2500 | 2500 to 5000
10 | CC(C)c1[nH]c2ncc(C(=O)N(C)C)cc2c1-c1cncc(-c2ccc(N3CCCC3=O)cc2)c1 [Example 269, 2-isopropyl-N,N-dimethyl-3-(5-(4-(2-oxopyrrolidin-1-yl)phenyl)pyridin-3-yl)-1H-pyrrolo[2,3-b]pyridine-5-carboxamide] | 100 to 1000 | 100 to 1000
11 | CC(C)c1cc(=O)n2ncc(-c3cncc(-c4ccc(N5CCCC5=O)cc4)c3)c2[nH]1 [Example 281, 5-isopropyl-3-(5-(4-(2-oxopyrrolidin-1-yl)phenyl)pyridin-3-yl)pyrazolo[1,5-a]pyrimidin-7(4H)-one] | 1000 to 2500 | 1000 to 2500
12 | CN(C)C(=O)c1cnc2occ(-c3cncc(-c4ccc(N5CCCC5=O)cc4)c3)c2c1 [Example 282, N,N-dimethyl-3-(5-(4-(2-oxopyrrolidin-1-yl)phenyl)pyridin-3-yl)furo[2,3-b]pyridine-5-carboxamide] | 100 to 1000 | 10 to 100
13 | O=C1CCCN1c1ccc(-c2cncc(-c3n[nH]c4ncc(C5CC5)cc34)c2)cc1 [Example 283, 1-(4-(5-(5-cyclopropyl-1H-pyrazolo[3,4-b]pyridin-3-yl)pyridin-3-yl)phenyl)pyrrolidin-2-one] | 10 to 100 | 10 to 100
14 | Cc1nn2c(=O)c(CCO)c(C)[nH]c2c1-c1cncc(-c2ccc(N3CCCC3=O)cc2)c1 [Example 284, 6-(2-hydroxyethyl)-2,5-dimethyl-3-(5-(4-(2-oxopyrrolidin-1-yl)phenyl)pyridin-3-yl)pyrazolo[1,5-a]pyrimidin-7(4H)-one] | 100 to 1000 | 100 to 1000

Further lines, results first:

Row | IC50 [1] [nM] | IC50 [2] [nM] | Compound
15 | 2500 to 5000 | 2500 to 5000 | COCc1cc(-c2cncc(-c3ccc(N4CCCC4=O)cc3)c2)n2nc(C)cc2n1 [Example 285, 1-(4-(5-(5-(methoxymethyl)-2-methylpyrazolo[1,5-a]pyrimidin-7-yl)pyridin-3-yl)phenyl)pyrrolidin-2-one]
16 | 100 to 1000 | 10 to 100 | Cc1nc(-c2cncc(-c3ccc(N4CCCC4=O)cc3)c2)c2sc(N3CCCCC3)nc2n1 [Example 286, 1-(4-(5-(5-methyl-2-(piperidin-1-yl)thiazolo[4,5-d]pyrimidin-7-yl)pyridin-3-yl)phenyl)pyrrolidin-2-one]
17 | 100 to 1000 | 100 to 1000 | O=C(Nc1nccc(-c2cncc(-c3ccc(N4CCCC4=O)cc3)c2)n1)C1CCC1 [Example 287, N-(4-(5-(4-(2-oxopyrrolidin-1-yl)phenyl)pyridin-3-yl)pyrimidin-2-yl)cyclobutanecarboxamide]
18 | 100 to 1000 | 100 to 1000 | CCc1c(C)[nH]c2c(-c3cncc(-c4ccc(N5CCCC5=O)cc4)c3)cnn2c1=O [Example 288, 6-ethyl-5-methyl-3-(5-(4-(2-oxopyrrolidin-1-yl)phenyl)pyridin-3-yl)pyrazolo[1,5-a]pyrimidin-7(4H)-one]
19 | 1000 to 2500 | 2500 to 5000 | O=C1CCCN1c1ccc(-c2cncc(-c3ncnc4nc(C5CCC5)[nH]c34)c2)cc1 [Example 289, 1-(4-(5-(8-cyclobutyl-7H-purin-6-yl)pyridin-3-yl)phenyl)pyrrolidin-2-one]
20 | 100 to 1000 | 100 to 1000 | COC(=O)c1cc2c(-c3cncc(-c4ccc(N5CCCC5=O)cc4)c3)c(C)cnc2[nH]1 [Example 290, methyl 5-methyl-4-(5-(4-(2-oxopyrrolidin-1-yl)phenyl)pyridin-3-yl)-1H-pyrrolo[2,3-b]pyridine-2-carboxylate]
21 | 10 to 100 | 10 to 100 | CC(O)c1cnc2[nH]c(C3CC3)c(-c3cncc(-c4ccc(N5CCCC5=O)cc4)c3)c2c1 (centres unmarked) [Example 291, 1-(4-(5-(2-cyclopropyl-5-(1-hydroxyethyl)-1H-pyrrolo[2,3-b]pyridin-3-yl)pyridin-3-yl)phenyl)pyrrolidin-2-one]
22 | 100 to 1000 | 100 to 1000 | O=C1CCCN1c1ccc(-c2cncc(-c3csc4ncccc34)c2)cc1 [Example 292, 1-(4-(5-(thieno[2,3-b]pyridin-3-yl)pyridin-3-yl)phenyl)pyrrolidin-2-one]
23 | 100 to 1000 | 100 to 1000 | C[C@@H](O)c1cnc2c(c1)c(-c1cncc(-c3ccc(N4CCCC4=O)cc3)c1)cn2C [Example 293, (R)-1-(4-(5-(5-(1-hydroxyethyl)-1-methyl-1H-pyrrolo[2,3-b]pyridin-3-yl)pyridin-3-yl)phenyl)pyrrolidin-2-one]
24 | 100 to 1000 | 100 to 1000 | C[C@H](O)c1cnc2c(c1)c(-c1cncc(-c3ccc(N4CCCC4=O)cc3)c1)cn2C [Example 294, (S)-1-(4-(5-(5-(1-hydroxyethyl)-1-methyl-1H-pyrrolo[2,3-b]pyridin-3-yl)pyridin-3-yl)phenyl)pyrrolidin-2-one]
25 | 1000 to 2500 | 100 to 1000 | CN(C)S(=O)(=O)c1cnc2[nH]cc(-c3cncc(-c4ccc(N5CCCC5=O)cc4)c3)c2c1 [Example 295, N,N-dimethyl-3-(5-(4-(2-oxopyrrolidin-1-yl)phenyl)pyridin-3-yl)-1H-pyrrolo[2,3-b]pyridine-5-sulfonamide]
